The NIST ThermoML archive (doi:10.1021/je060097q)

Conditions: Capillary rise

COCOC [dimethoxymethane]
Conditions	surface tension liquid-gas [mN/m]
238.07 K	28.12
243.12 K	27.42
248.13 K	26.76
253.12 K	26.21
258.12 K	25.63
263.08 K	24.83
268.09 K	24.23
273.09 K	23.63
278.08 K	23.11
283.07 K	22.39
288.08 K	21.75
293.05 K	21.02
298.04 K	20.36
303.16 K	19.7
308.15 K	18.99
313.16 K	18.4
318.16 K	17.67
323.15 K	17.16
328.13 K	16.56
333.16 K	15.88
338.16 K	15.32
343.15 K	14.65
348.14 K	14.02
353.15 K	13.34
358.15 K	12.83
363.15 K	12.27
368.15 K	11.58
373.15 K	11.01
378.15 K	10.36
383.13 K	9.778
388.14 K	9.175

COC(C)(C)C [2-methoxy-2-methylpropane]
Conditions	surface tension liquid-gas [mN/m]
243.08 K	24.08
248.01 K	23.43
253.11 K	22.84
258.13 K	22.32
263.1 K	21.65
268.13 K	20.97
273.16 K	20.52
278.11 K	19.99
283.12 K	19.35
288.13 K	18.96
293.07 K	18.53
298.08 K	17.75
303.11 K	17.23
308.15 K	16.71
313.16 K	16.25
318.11 K	15.61
323.16 K	15.09
328.14 K	14.52
333.15 K	14.02
338.16 K	13.56
343.13 K	13.06
348.13 K	12.5
353.13 K	11.94
358.15 K	11.55
363.13 K	10.92
368.13 K	10.53
373.12 K	9.946
378.12 K	9.534
383.12 K	8.956
388.14 K	8.518
393.13 K	8.006
